Results from the supplement of paper PMC10307832.

Columns and labels:
Assay in all cases: relative viability (nuclei count vs DMSO), 5 days (fraction); higher = more cells survive
Veliparib + Crizotinib = compound: C[C@]1(c2nc3c(C(N)=O)cccc3[nH]2)CCCN1 [Veliparib] + C[C@@H](Oc1cc(-c2cnn(C3CCNCC3)c2)cnc1N)c1c(Cl)ccc(F)c1Cl [Crizotinib] (partner 1 µM)
Method in brief: (§1)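 One day after seeding in 1536-well plates, lung cancer cell lines were dosed by pin tool. Dosing was either single-drug or a fixed anchor-drug dose plus five library-drug doses (not always all listed) in √10 steps. After 5 days, nuclei were stained in one fix-and-stain step and counted on 4× images, and relative viability is the nuclei count of treated wells over that of vehicle wells, given as the median of duplicate plates.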

Veliparib + Olaparib = compound: C[C@]1(c2nc3c(C(N)=O)cccc3[nH]2)CCCN1 [Veliparib] + O=C(c1cc(Cc2n[nH]c(=O)c3ccccc23)ccc1F)N1CCN(C(=O)C2CC2)CC1 [Olaparib] (partner 8 µM)
Method in brief: as §1

Veliparib + Pemetrexed = compound: C[C@]1(c2nc3c(C(N)=O)cccc3[nH]2)CCCN1 [Veliparib] + Nc1nc2[nH]cc(CCc3ccc(C(=O)N[C@@H](CCC(=O)O)C(=O)O)cc3)c2c(=O)[nH]1 [Pemetrexed] (partner 0.2 µM)
Method in brief: as §1

[1] = compound: COC1=CC=C(C=C1)CN2C=CC3=C2C=C(C=C3)C(=O)NO + C[C@]1(O)C[C@@H](c2nc(-c3ccc4ccc(-c5ccccc5)nc4c3)c3c(N)nccn32)C1 [Linsitinib] (partner 1 µM)
Method in brief: as §1

LU99A was tested, and the relative viability (Veliparib + Crizotinib; first compound 0.02 µM) was 0.604, the relative viability (Veliparib + Crizotinib; first compound 0.06325 µM) was 0.527 and the relative viability (Veliparib + Crizotinib; first compound 0.2 µM) was 0.46. For the same cell line, the relative viability (Veliparib + Crizotinib; first compound 0.6325 µM) was 0.44, the relative viability (Veliparib + Crizotinib; first compound 2 µM) was 0.625 and the relative viability (Veliparib + Olaparib; first compound 0.02 µM) was 0.252. It also gave a relative viability (Veliparib + Olaparib; first compound 0.06325 µM) of 0.266, a relative viability (Veliparib + Olaparib; first compound 0.2 µM) of 0.257 and a relative viability (Veliparib + Olaparib; first compound 0.6325 µM) of 0.265. It also gave a relative viability (Veliparib + Olaparib; first compound 2 µM) of 0.31, a relative viability (Veliparib + Pemetrexed; first compound 0.02 µM) of 0.207 and a relative viability (Veliparib + Pemetrexed; first compound 0.06325 µM) of 0.184. For the same cell line, the relative viability (Veliparib + Pemetrexed; first compound 0.2 µM) was 0.205, the relative viability (Veliparib + Pemetrexed; first compound 0.6325 µM) was 0.196 and the relative viability (Veliparib + Pemetrexed; first compound 2 µM) was 0.181. For the same cell line, the relative viability ([1]; first compound 0.253 µM) was 0.581, the relative viability ([1]; first compound 0.8 µM) was 0.533 and the relative viability ([1]; first compound 2.53 µM) was 0.552. The relative viability ([1]; first compound 8 µM) was 0.569.

HCC-78 was tested, and the relative viability (Veliparib + Crizotinib; first compound 0.02 µM) was 0.342, the relative viability (Veliparib + Crizotinib; first compound 0.06325 µM) was 0.3 and the relative viability (Veliparib + Crizotinib; first compound 0.2 µM) was 0.409. It also gave a relative viability (Veliparib + Crizotinib; first compound 0.6325 µM) of 0.383, a relative viability (Veliparib + Crizotinib; first compound 2 µM) of 0.352 and a relative viability (Veliparib + Olaparib; first compound 0.02 µM) of 0.755. For the same cell line, the relative viability (Veliparib + Olaparib; first compound 0.06325 µM) was 0.745, the relative viability (Veliparib + Olaparib; first compound 0.2 µM) was 0.82 and the relative viability (Veliparib + Olaparib; first compound 0.6325 µM) was 0.742. It also gave a relative viability (Veliparib + Olaparib; first compound 2 µM) of 0.806, a relative viability (Veliparib + Pemetrexed; first compound 0.02 µM) of 0.909 and a relative viability (Veliparib + Pemetrexed; first compound 0.06325 µM) of 0.925. For the same cell line, the relative viability (Veliparib + Pemetrexed; first compound 0.2 µM) was 0.91, the relative viability (Veliparib + Pemetrexed; first compound 0.6325 µM) was 0.494 and the relative viability (Veliparib + Pemetrexed; first compound 2 µM) was 0.853. For the same cell line, the relative viability ([1]; first compound 0.253 µM) was 0.542, the relative viability ([1]; first compound 0.8 µM) was 0.537 and the relative viability ([1]; first compound 2.53 µM) was 0.491. For the same cell line, the relative viability ([1]; first compound 8 µM) was 0.453.

In the case of NCI-H358, the relative viability (Veliparib + Crizotinib; first compound 0.06325 µM) was 0.533, the relative viability (Veliparib + Crizotinib; first compound 0.2 µM) was 0.564 and the relative viability (Veliparib + Crizotinib; first compound 0.6325 µM) was 0.523. For the same cell line, the relative viability (Veliparib + Crizotinib; first compound 2 µM) was 0.618, the relative viability (Veliparib + Olaparib; first compound 0.02 µM) was 0.673 and the relative viability (Veliparib + Olaparib; first compound 0.06325 µM) was 0.739. It also gave a relative viability (Veliparib + Olaparib; first compound 0.2 µM) of 0.662, a relative viability (Veliparib + Olaparib; first compound 0.6325 µM) of 0.564 and a relative viability (Veliparib + Olaparib; first compound 2 µM) of 0.597. It also gave a relative viability (Veliparib + Pemetrexed; first compound 0.02 µM) of 0.206, a relative viability (Veliparib + Pemetrexed; first compound 0.06325 µM) of 0.173 and a relative viability (Veliparib + Pemetrexed; first compound 0.2 µM) of 0.165. It also gave a relative viability (Veliparib + Pemetrexed; first compound 0.6325 µM) of 0.146, a relative viability (Veliparib + Pemetrexed; first compound 2 µM) of 0.176 and a relative viability ([1]; first compound 0.253 µM) of 0.903. It also gave a relative viability ([1]; first compound 0.8 µM) of 0.792, a relative viability ([1]; first compound 2.53 µM) of 0.742 and a relative viability ([1]; first compound 8 µM) of 0.851.

Cell Line NCI-H1792 has a relative viability (Veliparib + Crizotinib; first compound 0.02 µM) of 0.98, a relative viability (Veliparib + Crizotinib; first compound 0.06325 µM) of 0.919 and a relative viability (Veliparib + Crizotinib; first compound 0.2 µM) of 0.942. The relative viability (Veliparib + Crizotinib; first compound 0.6325 µM) was 0.93, the relative viability (Veliparib + Crizotinib; first compound 2 µM) was 0.939 and the relative viability (Veliparib + Olaparib; first compound 0.02 µM) was 0.693. For the same cell line, the relative viability (Veliparib + Olaparib; first compound 0.06325 µM) was 0.311, the relative viability (Veliparib + Olaparib; first compound 0.2 µM) was 0.68 and the relative viability (Veliparib + Olaparib; first compound 0.6325 µM) was 0.411. For the same cell line, the relative viability (Veliparib + Olaparib; first compound 2 µM) was 0.397, the relative viability (Veliparib + Pemetrexed; first compound 0.02 µM) was 0.724 and the relative viability (Veliparib + Pemetrexed; first compound 0.06325 µM) was 0.503. The relative viability (Veliparib + Pemetrexed; first compound 0.2 µM) was 0.653, the relative viability (Veliparib + Pemetrexed; first compound 0.6325 µM) was 0.786 and the relative viability (Veliparib + Pemetrexed; first compound 2 µM) was 0.66. It also gave a relative viability ([1]; first compound 0.08 µM) of 0.535, a relative viability ([1]; first compound 0.253 µM) of 0.62 and a relative viability ([1]; first compound 0.8 µM) of 0.636. The relative viability ([1]; first compound 2.53 µM) was 0.539 and the relative viability ([1]; first compound 8 µM) was 0.425.

NCI-H1651 gave a relative viability (Veliparib + Crizotinib; first compound 0.02 µM) of 0.926, a relative viability (Veliparib + Crizotinib; first compound 0.06325 µM) of 0.853 and a relative viability (Veliparib + Crizotinib; first compound 0.2 µM) of 0.805. The relative viability (Veliparib + Crizotinib; first compound 0.6325 µM) was 0.799, the relative viability (Veliparib + Crizotinib; first compound 2 µM) was 0.83 and the relative viability (Veliparib + Olaparib; first compound 0.02 µM) was 0.172. It also gave a relative viability (Veliparib + Olaparib; first compound 0.06325 µM) of 0.197, a relative viability (Veliparib + Olaparib; first compound 0.2 µM) of 0.183 and a relative viability (Veliparib + Olaparib; first compound 0.6325 µM) of 0.173. It also gave a relative viability (Veliparib + Olaparib; first compound 2 µM) of 0.183, a relative viability (Veliparib + Pemetrexed; first compound 0.02 µM) of 0.55 and a relative viability (Veliparib + Pemetrexed; first compound 0.06325 µM) of 0.65. The relative viability (Veliparib + Pemetrexed; first compound 0.2 µM) was 0.578, the relative viability (Veliparib + Pemetrexed; first compound 0.6325 µM) was 0.537 and the relative viability (Veliparib + Pemetrexed; first compound 2 µM) was 0.563. The relative viability ([1]; first compound 0.08 µM) was 0.939, the relative viability ([1]; first compound 0.253 µM) was 1.01 and the relative viability ([1]; first compound 0.8 µM) was 1.08. It also gave a relative viability ([1]; first compound 2.53 µM) of 0.869 and a relative viability ([1]; first compound 8 µM) of 0.716.

In the case of LOU-NH91, the relative viability (Veliparib + Crizotinib; first compound 0.02 µM) was 0.729, the relative viability (Veliparib + Crizotinib; first compound 0.06325 µM) was 0.719 and the relative viability (Veliparib + Crizotinib; first compound 0.2 µM) was 0.745. For the same cell line, the relative viability (Veliparib + Crizotinib; first compound 0.6325 µM) was 0.688, the relative viability (Veliparib + Crizotinib; first compound 2 µM) was 0.774 and the relative viability (Veliparib + Olaparib; first compound 0.02 µM) was 0.882. For the same cell line, the relative viability (Veliparib + Olaparib; first compound 0.06325 µM) was 0.901, the relative viability (Veliparib + Olaparib; first compound 0.2 µM) was 0.978 and the relative viability (Veliparib + Olaparib; first compound 0.6325 µM) was 0.876. For the same cell line, the relative viability (Veliparib + Olaparib; first compound 2 µM) was 0.95, the relative viability (Veliparib + Pemetrexed; first compound 0.02 µM) was 0.394 and the relative viability (Veliparib + Pemetrexed; first compound 0.06325 µM) was 0.374. For the same cell line, the relative viability (Veliparib + Pemetrexed; first compound 0.2 µM) was 0.39, the relative viability (Veliparib + Pemetrexed; first compound 0.6325 µM) was 0.374 and the relative viability (Veliparib + Pemetrexed; first compound 2 µM) was 0.374. It also gave a relative viability ([1]; first compound 0.08 µM) of 0.74, a relative viability ([1]; first compound 0.253 µM) of 0.995 and a relative viability ([1]; first compound 0.8 µM) of 1.04. For the same cell line, the relative viability ([1]; first compound 2.53 µM) was 0.954 and the relative viability ([1]; first compound 8 µM) was 0.913.

COR-L23 showed a relative viability (Veliparib + Crizotinib; first compound 0.02 µM) of 0.637, a relative viability (Veliparib + Crizotinib; first compound 0.06325 µM) of 0.605 and a relative viability (Veliparib + Crizotinib; first compound 0.2 µM) of 0.718. The relative viability (Veliparib + Crizotinib; first compound 0.6325 µM) was 0.584, the relative viability (Veliparib + Crizotinib; first compound 2 µM) was 0.651 and the relative viability (Veliparib + Olaparib; first compound 0.02 µM) was 0.376. The relative viability (Veliparib + Olaparib; first compound 0.06325 µM) was 0.247, the relative viability (Veliparib + Olaparib; first compound 0.2 µM) was 0.329 and the relative viability (Veliparib + Olaparib; first compound 0.6325 µM) was 0.295. It also gave a relative viability (Veliparib + Olaparib; first compound 2 µM) of 0.355, a relative viability (Veliparib + Pemetrexed; first compound 0.02 µM) of 0.206 and a relative viability (Veliparib + Pemetrexed; first compound 0.06325 µM) of 0.202. For the same cell line, the relative viability (Veliparib + Pemetrexed; first compound 0.2 µM) was 0.201, the relative viability (Veliparib + Pemetrexed; first compound 0.6325 µM) was 0.181 and the relative viability (Veliparib + Pemetrexed; first compound 2 µM) was 0.202. It also gave a relative viability ([1]; first compound 0.08 µM) of 0.558, a relative viability ([1]; first compound 0.253 µM) of 1.09 and a relative viability ([1]; first compound 0.8 µM) of 0.817. It also gave a relative viability ([1]; first compound 2.53 µM) of 0.872 and a relative viability ([1]; first compound 8 µM) of 0.836.

With NCI-H650 the relative viability (Veliparib + Crizotinib; first compound 0.02 µM) was 0.696, the relative viability (Veliparib + Crizotinib; first compound 0.06325 µM) was 0.72 and the relative viability (Veliparib + Crizotinib; first compound 0.2 µM) was 0.708. For the same cell line, the relative viability (Veliparib + Crizotinib; first compound 0.6325 µM) was 0.665, the relative viability (Veliparib + Crizotinib; first compound 2 µM) was 0.572 and the relative viability (Veliparib + Olaparib; first compound 0.02 µM) was 0.355. For the same cell line, the relative viability (Veliparib + Olaparib; first compound 0.06325 µM) was 0.329, the relative viability (Veliparib + Olaparib; first compound 0.2 µM) was 0.383 and the relative viability (Veliparib + Olaparib; first compound 0.6325 µM) was 0.431. It also gave a relative viability (Veliparib + Olaparib; first compound 2 µM) of 0.378, a relative viability (Veliparib + Pemetrexed; first compound 0.02 µM) of 0.992 and a relative viability (Veliparib + Pemetrexed; first compound 0.06325 µM) of 0.895. It also gave a relative viability (Veliparib + Pemetrexed; first compound 0.2 µM) of 0.868, a relative viability (Veliparib + Pemetrexed; first compound 0.6325 µM) of 0.822 and a relative viability (Veliparib + Pemetrexed; first compound 2 µM) of 0.961. For the same cell line, the relative viability ([1]; first compound 0.08 µM) was 0.793, the relative viability ([1]; first compound 0.253 µM) was 0.849 and the relative viability ([1]; first compound 0.8 µM) was 0.95. The relative viability ([1]; first compound 2.53 µM) was 0.936 and the relative viability ([1]; first compound 8 µM) was 0.725.
